What all share (format): biochemical
One experiment deals with T1, MsTilS (Mycolicibacterium smegmatis, UniProt A0R594).
T1 construct: gene tilS; type II TilS, lacks CTD2 naturally; recombinant, Rosetta II E. coli; strain source only in supplement (codon-usage genome MG(2)155)
T1 sequence (A0R594 1-322): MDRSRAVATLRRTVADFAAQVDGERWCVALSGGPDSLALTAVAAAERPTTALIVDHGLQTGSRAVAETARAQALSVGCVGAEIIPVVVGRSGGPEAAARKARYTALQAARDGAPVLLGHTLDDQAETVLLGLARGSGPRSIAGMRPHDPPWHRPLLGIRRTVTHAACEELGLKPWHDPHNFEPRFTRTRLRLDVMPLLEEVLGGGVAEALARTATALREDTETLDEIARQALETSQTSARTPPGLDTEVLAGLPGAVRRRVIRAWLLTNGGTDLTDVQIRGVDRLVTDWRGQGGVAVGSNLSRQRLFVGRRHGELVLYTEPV
The experiment in a line: 3H-lysine incorporation into tRNA, filter scintillation. The following applies: labelled compound; cognate tRNA(Ile2) transcript, 2 mM ATP, 10 mM MgCl2, 10 mM KCl, pH 8.5.

The next experiment has as its target T2, HpTilS (Helicobacter pylori, UniProt O25428).
T2 construct: gene tilS; type II TilS; recombinant, Rosetta II E. coli; strain source only in supplement (codon-usage genome 26695)
T2 sequence (O25428 1-336): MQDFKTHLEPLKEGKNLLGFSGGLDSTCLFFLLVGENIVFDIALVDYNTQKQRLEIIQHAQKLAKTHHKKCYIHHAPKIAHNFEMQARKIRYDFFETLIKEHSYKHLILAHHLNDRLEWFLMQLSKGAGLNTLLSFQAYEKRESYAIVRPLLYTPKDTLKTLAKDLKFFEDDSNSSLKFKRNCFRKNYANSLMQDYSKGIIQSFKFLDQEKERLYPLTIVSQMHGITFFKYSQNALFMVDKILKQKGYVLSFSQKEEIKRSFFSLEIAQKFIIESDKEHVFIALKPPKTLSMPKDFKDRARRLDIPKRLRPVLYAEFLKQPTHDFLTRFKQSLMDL
The experiment is described as above. As to conditions: labelled compound; cognate tRNA(Ile2) transcript, 2 mM ATP, 10 mM MgCl2, 10 mM KCl, pH 8.5.

For a further experiment, the target named is T3, BcTilS (Burkholderia cenocepacia, UniProt B4ED70).
T3 construct: gene tilS; recombinant, pET-28a, Rosetta II E. coli; strain source only in supplement (codon-usage genome HI2424)
T3 sequence (B4ED70 1-473): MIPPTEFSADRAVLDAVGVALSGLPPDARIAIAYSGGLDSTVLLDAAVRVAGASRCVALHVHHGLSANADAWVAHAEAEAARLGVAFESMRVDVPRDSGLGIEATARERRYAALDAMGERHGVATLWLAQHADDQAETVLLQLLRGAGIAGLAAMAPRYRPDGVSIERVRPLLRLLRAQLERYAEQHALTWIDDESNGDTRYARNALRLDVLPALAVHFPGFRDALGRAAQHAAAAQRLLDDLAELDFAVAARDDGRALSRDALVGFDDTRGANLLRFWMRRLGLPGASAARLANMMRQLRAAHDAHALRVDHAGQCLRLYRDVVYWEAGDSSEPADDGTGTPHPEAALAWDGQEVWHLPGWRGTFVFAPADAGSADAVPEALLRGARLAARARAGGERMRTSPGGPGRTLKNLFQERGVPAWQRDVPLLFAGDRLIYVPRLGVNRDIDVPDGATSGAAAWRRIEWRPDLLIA
Described as above. As to conditions: labelled compound; cognate tRNA(Ile2) transcript, 2 mM ATP, 10 mM MgCl2, 10 mM KCl, pH 9.0.

A further experiment has as its target T4, EcTilS (Escherichia coli, UniProt P52097).
T4 construct: gene tilS; recombinant, pET-28a, Rosetta II E. coli; strain source only in supplement (codon-usage genome W3110)
T4 sequence (P52097 1-432): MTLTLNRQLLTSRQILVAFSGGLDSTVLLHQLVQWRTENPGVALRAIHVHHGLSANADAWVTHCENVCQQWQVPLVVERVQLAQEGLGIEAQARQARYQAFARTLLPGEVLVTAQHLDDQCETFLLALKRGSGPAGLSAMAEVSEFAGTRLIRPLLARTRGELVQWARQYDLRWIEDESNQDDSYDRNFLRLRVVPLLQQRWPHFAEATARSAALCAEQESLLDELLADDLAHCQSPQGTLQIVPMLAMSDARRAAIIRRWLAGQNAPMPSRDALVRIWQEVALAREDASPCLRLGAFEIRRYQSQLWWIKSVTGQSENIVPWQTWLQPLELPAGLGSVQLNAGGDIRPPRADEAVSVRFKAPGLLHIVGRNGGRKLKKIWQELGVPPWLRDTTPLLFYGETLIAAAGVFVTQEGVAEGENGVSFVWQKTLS
The description is as above. As to conditions: labelled compound; cognate tRNA(Ile2) transcript, 2 mM ATP, 10 mM MgCl2, 10 mM KCl, pH 9.0.

The next experiment addresses T5, PaTilS (Pseudomonas aeruginosa, UniProt Q9HXZ3).
T5 construct: gene tilS; recombinant, pET-28a, Rosetta II E. coli; strain source only in supplement (codon-usage genome PAO1)
T5 sequence (Q9HXZ3 1-442): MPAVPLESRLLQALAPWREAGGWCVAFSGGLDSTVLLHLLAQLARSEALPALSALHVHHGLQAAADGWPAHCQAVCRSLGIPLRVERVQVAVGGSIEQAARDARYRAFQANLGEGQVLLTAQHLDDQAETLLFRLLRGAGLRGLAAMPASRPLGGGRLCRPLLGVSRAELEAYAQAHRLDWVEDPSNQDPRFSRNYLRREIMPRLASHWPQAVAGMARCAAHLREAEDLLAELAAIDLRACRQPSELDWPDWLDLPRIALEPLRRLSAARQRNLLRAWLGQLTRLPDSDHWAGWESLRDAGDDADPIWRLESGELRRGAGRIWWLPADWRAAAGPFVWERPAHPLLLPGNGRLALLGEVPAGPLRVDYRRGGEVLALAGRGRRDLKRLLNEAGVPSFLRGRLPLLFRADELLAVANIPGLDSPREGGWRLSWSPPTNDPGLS
The description is as above. As to conditions: labelled compound; cognate tRNA(Ile2) transcript, 2 mM ATP, 10 mM MgCl2, 10 mM KCl, pH 9.0.

Another experiment addresses T6, GkTilS (Geobacillus kaustophilus, UniProt Q5L3T3).
T6 construct: gene tilS; recombinant, pET-28a, Rosetta II E. coli; strain source only in supplement (codon-usage genome HTA426)
T6 sequence (Q5L3T3 1-464): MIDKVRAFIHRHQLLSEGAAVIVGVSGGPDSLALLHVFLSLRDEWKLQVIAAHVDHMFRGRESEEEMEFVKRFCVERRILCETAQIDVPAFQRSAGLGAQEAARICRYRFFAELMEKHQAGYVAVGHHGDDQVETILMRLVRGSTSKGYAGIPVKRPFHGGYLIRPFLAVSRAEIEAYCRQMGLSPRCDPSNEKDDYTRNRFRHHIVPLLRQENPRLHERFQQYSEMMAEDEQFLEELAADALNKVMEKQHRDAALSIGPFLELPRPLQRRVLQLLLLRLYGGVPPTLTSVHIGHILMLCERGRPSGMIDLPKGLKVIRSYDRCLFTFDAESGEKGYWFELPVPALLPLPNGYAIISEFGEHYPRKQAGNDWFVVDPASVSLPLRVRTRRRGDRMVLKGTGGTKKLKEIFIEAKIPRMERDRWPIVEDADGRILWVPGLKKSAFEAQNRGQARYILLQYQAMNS
The experiment is described as above. As to conditions: labelled compound; cognate tRNA(Ile2) transcript, 2 mM ATP, 10 mM MgCl2, 10 mM KCl, pH 9.0.

For the next experiment, the target named is T7, BfTilS (Bacteroides fragilis, UniProt Q5LFM6).
T7 construct: gene tilS; recombinant, pET-28a, Rosetta II E. coli; strain source only in supplement (codon-usage genome NCTC9343)
T7 sequence (Q5LFM6 1-435): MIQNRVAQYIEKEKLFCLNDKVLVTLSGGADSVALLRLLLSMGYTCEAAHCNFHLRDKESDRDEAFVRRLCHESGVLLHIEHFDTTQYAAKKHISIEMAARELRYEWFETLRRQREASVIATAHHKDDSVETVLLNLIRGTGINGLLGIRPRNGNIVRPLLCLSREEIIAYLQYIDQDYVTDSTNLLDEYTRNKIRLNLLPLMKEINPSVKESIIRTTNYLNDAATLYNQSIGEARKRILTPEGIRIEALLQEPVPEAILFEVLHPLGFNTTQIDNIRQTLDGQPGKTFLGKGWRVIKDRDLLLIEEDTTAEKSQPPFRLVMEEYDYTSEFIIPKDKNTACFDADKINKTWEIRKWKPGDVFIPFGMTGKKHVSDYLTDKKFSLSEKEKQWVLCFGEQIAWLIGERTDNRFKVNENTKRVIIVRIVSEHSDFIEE
Described as above. As to conditions: labelled compound; cognate tRNA(Ile2) transcript, 2 mM ATP, 10 mM MgCl2, 10 mM KCl, pH 8.5.

The target in a further experiment is T8, PaMetRS (Pseudomonas aeruginosa, UniProt Q9HYC7).
T8 construct: gene metG; recombinant, cloned metS gene; details not in main text
T8 sequence (Q9HYC7 1-677): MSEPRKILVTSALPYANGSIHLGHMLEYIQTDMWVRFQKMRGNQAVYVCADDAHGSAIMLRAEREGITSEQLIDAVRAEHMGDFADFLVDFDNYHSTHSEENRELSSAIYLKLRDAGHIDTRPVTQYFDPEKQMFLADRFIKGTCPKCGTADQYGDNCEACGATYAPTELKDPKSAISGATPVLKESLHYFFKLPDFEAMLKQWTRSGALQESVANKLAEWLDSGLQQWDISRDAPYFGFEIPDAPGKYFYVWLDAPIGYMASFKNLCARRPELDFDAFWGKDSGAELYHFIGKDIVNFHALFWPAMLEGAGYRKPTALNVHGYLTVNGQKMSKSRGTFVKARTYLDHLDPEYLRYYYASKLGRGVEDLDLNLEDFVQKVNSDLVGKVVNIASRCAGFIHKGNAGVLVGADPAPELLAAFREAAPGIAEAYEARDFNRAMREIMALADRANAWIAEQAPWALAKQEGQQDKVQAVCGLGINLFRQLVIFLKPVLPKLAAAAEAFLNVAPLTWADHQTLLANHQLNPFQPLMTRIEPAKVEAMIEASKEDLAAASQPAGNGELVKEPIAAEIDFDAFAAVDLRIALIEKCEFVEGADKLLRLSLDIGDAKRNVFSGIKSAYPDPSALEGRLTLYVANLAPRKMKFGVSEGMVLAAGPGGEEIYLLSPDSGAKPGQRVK
The experiment in a line: tRNA methionylation (aminoacylation). The following applies: cognate tRNA(Met) transcript; assay details not given.

A further experiment deals with T9, GkMetRS (Geobacillus kaustophilus, UniProt Q5L3W2).
T9 construct: gene metG; recombinant, cloned metS gene; details not in main text
The experiment in a line: tRNA methionylation (aminoacylation). The following applies: cognate tRNA(Met) transcript; assay details not given.

The target of the next experiment is T10, BcMetRS (Burkholderia cenocepacia, UniProt A0K9L0).
T10 construct: gene metG; recombinant, cloned metS gene; details not in main text
T10 sequence (A0K9L0 1-718): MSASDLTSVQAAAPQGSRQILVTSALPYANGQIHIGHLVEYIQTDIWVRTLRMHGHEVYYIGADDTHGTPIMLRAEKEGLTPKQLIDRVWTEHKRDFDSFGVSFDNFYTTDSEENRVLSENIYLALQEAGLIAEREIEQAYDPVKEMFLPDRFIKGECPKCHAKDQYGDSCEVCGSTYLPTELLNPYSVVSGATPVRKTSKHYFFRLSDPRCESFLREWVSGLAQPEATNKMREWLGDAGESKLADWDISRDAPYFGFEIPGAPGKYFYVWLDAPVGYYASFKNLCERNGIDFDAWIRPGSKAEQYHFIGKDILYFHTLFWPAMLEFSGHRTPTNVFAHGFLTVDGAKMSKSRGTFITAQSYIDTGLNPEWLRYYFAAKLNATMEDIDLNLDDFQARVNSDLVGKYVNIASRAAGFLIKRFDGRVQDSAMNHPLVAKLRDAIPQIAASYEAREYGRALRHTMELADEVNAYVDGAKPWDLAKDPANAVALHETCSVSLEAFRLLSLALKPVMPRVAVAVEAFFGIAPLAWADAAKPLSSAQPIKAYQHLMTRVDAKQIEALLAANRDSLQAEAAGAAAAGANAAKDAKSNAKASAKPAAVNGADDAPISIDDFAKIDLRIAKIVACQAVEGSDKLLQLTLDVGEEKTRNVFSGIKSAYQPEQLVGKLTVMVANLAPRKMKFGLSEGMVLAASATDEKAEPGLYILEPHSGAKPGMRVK
The experiment in a line: tRNA methionylation (aminoacylation). The following applies: cognate tRNA(Met) transcript; assay details not given.

The values that follow come from publication PMC12514573, “The bacterial tRNA-modifying enzyme tRNA^Ile lysidine synthetase is genetically conserved but catalytically variable” (The Journal of Biological Chemistry, 2025).

T9 sequence (Q5L3W2 1-650): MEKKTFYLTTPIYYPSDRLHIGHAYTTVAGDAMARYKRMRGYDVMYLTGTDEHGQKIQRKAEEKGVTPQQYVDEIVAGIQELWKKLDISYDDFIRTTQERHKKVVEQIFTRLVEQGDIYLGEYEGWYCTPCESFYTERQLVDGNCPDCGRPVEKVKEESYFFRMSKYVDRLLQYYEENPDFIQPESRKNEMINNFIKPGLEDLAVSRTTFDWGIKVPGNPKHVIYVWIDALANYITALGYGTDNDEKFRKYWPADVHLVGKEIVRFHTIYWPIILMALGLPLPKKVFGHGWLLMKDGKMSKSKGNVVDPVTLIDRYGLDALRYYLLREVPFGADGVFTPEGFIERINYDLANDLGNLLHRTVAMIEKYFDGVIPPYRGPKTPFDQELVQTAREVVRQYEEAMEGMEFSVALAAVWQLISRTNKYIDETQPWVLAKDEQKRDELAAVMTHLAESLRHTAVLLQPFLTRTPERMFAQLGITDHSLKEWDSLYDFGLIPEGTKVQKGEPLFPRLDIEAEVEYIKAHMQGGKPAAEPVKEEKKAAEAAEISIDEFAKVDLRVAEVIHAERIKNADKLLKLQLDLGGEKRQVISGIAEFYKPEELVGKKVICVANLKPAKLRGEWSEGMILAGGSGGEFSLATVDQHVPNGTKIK

As for `NCCCC[C@H](N)C(=O)O` [L-lysine], the “3H-lysine incorporation into tRNA, filter scintillation” value at MsTilS, on HpTilS, on BcTilS, on EcTilS, on PaTilS and at GkTilS was “Filters were counted by liquid scintillation to quantify lysine incorporation into transcript tRNA” each time. Besides, the “3H-lysine incorporation into tRNA, filter scintillation” value on BfTilS is given as “Filters were counted by liquid scintillation to quantify lysine incorporation into transcript tRNA”.

Take `CSCC[C@H](N)C(=O)O` [methionine]: the “tRNA methionylation (aminoacylation)” value on PaMetRS is “evaluated the methionylation activity toward cognate tRNA^Met and near-cognate tRNA^Ile2 substrates”; at GkMetRS, “evaluated the methionylation activity toward cognate tRNA^Met and near-cognate tRNA^Ile2 substrates”; on BcMetRS it was “evaluated the methionylation activity toward cognate tRNA^Met and near-cognate tRNA^Ile2 substrates”.
